In EP4541797A1, “CAMPTOTHECIN DERIVATIVE, METHOD FOR PREPARING SAME, AND USE THEREOF” (Hangzhou Adcoris Biopharma Co., Ltd, priority 2022, dated 2024):
Where two headings read alike, the source gives them in different places.

Assays:
OE33 cells = assay: Inhibitory activity on cancer cell growth (CCK-8, 72 h), OE33 cells; format: cell-based; details: Homo sapiens, OE33, 72 h, human esophageal cancer cells OE33, 72 h incubation
Experimental: (§1) Human esophageal cancer cells OE33, human breast adenocarcinoma cells SK-BR-3 and human gastric cancer cells NCI-N87 were cultured in RPMI1640 (Cellmax) supplemented with 10% fetal bovine serum (Cellmax) respectively. Cells in the exponential growth phase were diluted to a concentration of 1×10^5cells/mL by culture medium and added to 96-well cell culture plates at 100µL per well, then incubated overnight in a 37°C incubator with 5% CO2. On the following day, the test compounds and control compounds were diluted to concentrations of 10000 nM, 2000 nM, 400 nM, 80 nM, 16 nM, 3.2 nM, 0.64 nM, and 0.13 nM by culture medium and added to the 96-well cell culture plates at 2µL per well, with three replicate wells for each concentration. Negative control and blank control groups without the addition of compounds were supplemented with 2µL of the dilution liquid per well. After the addition of the compounds, the plates were returned to the 37°C incubator with 5% CO2 to continue incubation for 72 h. After incubation, the cell culture plates were removed, and the culture medium was aspirated using a pipette. Then, 100µL of culture medium containing 10% CCK-8 was added to each well, and the plates were incubated at 37°C for 3 h. After incubation, the plates were removed, kept in the dark, and placed in ELISA plate. Absorbance was measured at 630nm as the reference wavelength and 450nm as the test wavelength. The IC50 values (Tables 1-3) were calculated using the four-parameter logistic regression method in GraphPad, based on the absorbance values. SN38 (7-ethyl-10-hydroxycamptothecin) and 10CPT (10-hydroxycamptothecin) were used as control compounds. For the IC50 values, wherein "++++" indicates an IC50 < 50 nM; "+++" indicates an IC50 between 50 nM and 100 nM; "++" indicates an IC50 between 100 nM and 500 nM; and "+" indicates an IC50 > 500 nM. Table 1: Inhibitory activity of compounds to inhibit the growth of OE33 cells

SK-BR-3 cells = assay: Inhibitory activity on cancer cell growth (CCK-8, 72 h), SK-BR-3 cells; format: cell-based; details: Homo sapiens, SK-BR-3, 72 h, human breast adenocarcinoma cells SK-BR-3, 72 h incubation
Experimental: as §1

CC[C@@]1(O)C(=O)OCc2c1cc1n(c2=O)Cc2cc3c(CNN4CCOCC4)c(O)ccc3nc2-1 [Compound 18, 9-(morpholin-4-amine)methyl-10-hydroxycamptothecin]
IC50 (OE33 cells): 100 to 500 nM | IC50 (SK-BR-3 cells): 50 to 100 nM

CC[C@@]1(O)C(=O)OCc2c1cc1n(c2=O)Cc2cc3c(CN4CCC5(CCNCC5)CC4)c(O)ccc3nc2-1 [Compound 29, 9-(3-(undeca-5,5-spirocyclo-3,9-diazane))methyl-10-hydroxycamptothecin]
IC50 (OE33 cells; read-out: IC50): 100 to 500 nM

CC[C@@]1(O)C(=O)OCc2c1cc1n(c2=O)Cc2cc3c(CN4CCNCC4)c(O)ccc3nc2-1 [Compound 2, 9-(1-piperazine)methyl-10-hydroxycamptothecin]
IC50 (OE33 cells): 50 to 100 nM | IC50 (SK-BR-3 cells): 50 to 100 nM

CC[C@@]1(O)C(=O)OCc2c1cc1n(c2=O)Cc2cc3c(CN(C)CCCCN)c(O)ccc3nc2-1 [Compound 11, 9-(N-4-aminobutyl-N-methylamino)methyl-10-hydroxycamptothecin]
IC50 (OE33 cells): 100 to 500 nM | IC50 (SK-BR-3 cells): 100 to 500 nM

CC[C@@]1(O)C(=O)OCc2c1cc1n(c2=O)Cc2cc3c4c(ccc3nc2-1)OCN(N1CCOCC1)C4 [Compound 22, 3-(N-morpholine)-1.3-oxazino[5,6][9,10]camptothecin]
IC50 (OE33 cells; read-out: IC50): 100 to 500 nM

CC[C@@]1(O)C(=O)OCc2c1cc1n(c2=O)Cc2cc3c(CN[C@H]4CC[C@H](OC)CC4)c(O)ccc3nc2-1 [Compound 42, 9-(trans-4-methoxycyclohexylamine)methyl-10-hydroxycamptothecin]
IC50 (OE33 cells; read-out: IC50): 100 to 500 nM

CC[C@@]1(O)C(=O)OCc2c1cc1n(c2=O)Cc2cc3cc(O)ccc3nc2-1 [Compound 10CPT, 10-hydroxycamptothecin, reference compound]
IC50 (OE33 cells): < 50 nM | IC50 (SK-BR-3 cells): < 50 nM

CC[C@@]1(O)C(=O)OCc2c1cc1n(c2=O)Cc2cc3c(CN4CCC(N)CC4)c(O)ccc3nc2-1 [Compound 1, 9-(1-(4-aminopiperidine))methyl-10-hydroxycamptothecin]
IC50 (OE33 cells; read-out: IC50): 100 to 500 nM | IC50 (SK-BR-3 cells; read-out: IC50): 50 to 100 nM

CC[C@@]1(O)C(=O)OCc2c1cc1n(c2=O)Cc2cc3c(CN4CCN(C(=O)CO)CC4)c(O)ccc3nc2-1 [Compound 46, 9-(1-(4-hydroxyacetylpiperazine))methyl-10-hydroxycamptothecin]
IC50 (OE33 cells): 100 to 500 nM

CC[C@@]1(O)C(=O)OCc2c1cc1n(c2=O)Cc2cc3c(CN4CCN(C(C)=O)CC4)c(O)ccc3nc2-1 [Compound 7, 9-(1-(4-acetylpiperazine))methyl-10-hydroxycamptothecin]
IC50 (OE33 cells; read-out: IC50): 50 to 100 nM | IC50 (SK-BR-3 cells; read-out: IC50): 50 to 100 nM

CC[C@@]1(O)C(=O)OCc2c1cc1n(c2=O)Cc2cc3c(CN(C)CCCN)c(O)ccc3nc2-1 [Compound 25, 9-(1-methyl-3-aminopropylamine)methyl-10-hydroxycamptothecin]
IC50 (OE33 cells; read-out: IC50): 100 to 500 nM

CC[C@@]1(O)C(=O)OCc2c1cc1n(c2=O)Cc2cc3c(CN(C)CC4CCNCC4)c(O)ccc3nc2-1 [Compound 28, 9-(N-methyl(piperidine-4-methyl)amine)methyl-10-hydroxycamptothecin]
IC50 (OE33 cells): 100 to 500 nM

CCNCc1c(O)ccc2nc3c(cc12)Cn1c-3cc2c(c1=O)COC(=O)[C@]2(O)CC [Compound 20, 9-(ethylamine)methyl-10-hydroxycamptothecin]
IC50 (OE33 cells): 100 to 500 nM

CC[C@@]1(O)C(=O)OCc2c1cc1n(c2=O)Cc2cc3c(CNN4CCCCC4)c(O)ccc3nc2-1 [Compound 26, 9-(piperidine-1-amine)methyl-10-hydroxycamptothecin]
IC50 (OE33 cells; read-out: IC50): 100 to 500 nM

CC[C@@]1(O)C(=O)OCc2c1cc1n(c2=O)Cc2cc3c(CN[C@@H](C)C(=O)OC(C)(C)C)c(O)ccc3nc2-1 [Compound 35, 9-(L-alaninetert-butyl ester)methyl-10-hydroxycamptothecin]
IC50 (OE33 cells; read-out: IC50): 50 to 100 nM

CC[C@@]1(O)C(=O)OCc2c1cc1n(c2=O)Cc2cc3c(CNC4CCOCC4)c(O)ccc3nc2-1 [Compound 37, 9-(tetrahydropyran-4-amine)methyl-10-hydroxycamptothecin]
IC50 (OE33 cells; read-out: IC50): 100 to 500 nM

CC[C@@]1(O)C(=O)OCc2c1cc1n(c2=O)Cc2cc3c(CN(C)NC(=O)OC(C)(C)C)c(O)ccc3nc2-1 [Compound 23, 9-(1-methyl-2-Boc-hydrazine)methyl-10-hydroxycamptothecin]
IC50 (OE33 cells; read-out: IC50): < 50 nM

CC[C@@]1(O)C(=O)OCc2c1cc1n(c2=O)Cc2cc3c(CN4CCC(OC)CC4)c(O)ccc3nc2-1 [Compound 5, 9-(1-(4-methoxypiperidine))methyl-10-hydroxycamptothecin]
IC50 (OE33 cells; read-out: IC50): 50 to 100 nM | IC50 (SK-BR-3 cells; read-out: IC50): > 500 nM

CC[C@@]1(O)C(=O)OCc2c1cc1n(c2=O)Cc2cc3c(CN4CCN(C(=O)C5CC5)CC4)c(O)ccc3nc2-1 [Compound 6, 9-(1-(4-cyclopropylcarbonylpiperazine))methyl-10-hydroxycamptothecin]
IC50 (OE33 cells): 100 to 500 nM | IC50 (SK-BR-3 cells): 50 to 100 nM

CC[C@@]1(O)C(=O)OCc2c1cc1n(c2=O)Cc2cc3c(CN4CCC(C(=O)OC)CC4)c(O)ccc3nc2-1 [Compound 33, 9-(1-piperidine-4-methylformate)methyl-10-hydroxycamptothecin]
IC50 (OE33 cells; read-out: IC50): 100 to 500 nM

CC[C@@]1(O)C(=O)OCc2c1cc1n(c2=O)Cc2cc3c(CNCC4CCOCC4)c(O)ccc3nc2-1 [Compound 43, 9-(tetrahydropyran-4-methylamine)methyl-10-hydroxycamptothecin]
IC50 (OE33 cells): 100 to 500 nM

CC[C@@]1(O)C(=O)OCc2c1cc1n(c2=O)Cc2cc3c(CN4CCC[C@H]4C(=O)OC(C)(C)C)c(O)ccc3nc2-1 [Compound 31, 9-(L-prolinetert-butyl ester)methyl-10-hydroxycamptothecin]
IC50 (OE33 cells; read-out: IC50): 100 to 500 nM

CC[C@@]1(O)C(=O)OCc2c1cc1n(c2=O)Cc2cc3c(CN(C)C4CCOCC4)c(O)ccc3nc2-1 [Compound 14, 9-(N-methyltetrahydropyran-4-amine)methyl-10-hydroxycamptothecin]
IC50 (OE33 cells): 100 to 500 nM

CC[C@@]1(O)C(=O)OCc2c1cc1n(c2=O)Cc2cc3c(CN4CCC(C(=O)O)CC4)c(O)ccc3nc2-1 [Compound 34, 9-(1-piperidine-4-carboxyllic acid)methyl-10-hydroxycamptothecin]
IC50 (OE33 cells; read-out: IC50): > 500 nM

CC[C@@]1(O)C(=O)OCc2c1cc1n(c2=O)Cc2cc3c(CN4CCC(ON)CC4)c(O)ccc3nc2-1 [Compound 3, 9-(1-(4-aminoxypiperidine))methyl-10-hydroxycamptothecin]
IC50 (OE33 cells; read-out: IC50): 100 to 500 nM

CC[C@@]1(O)C(=O)OCc2c1cc1n(c2=O)Cc2cc3c4c(ccc3nc2-1)OCN(CC(F)(F)F)C4 [Compound 40, 3-(N-(2,2,2-trifluoroethyl))-1.3-oxazino[5,6][9,10]camptothecin]
IC50 (OE33 cells; read-out: IC50): 100 to 500 nM

CC[C@@]1(O)C(=O)OCc2c1cc1n(c2=O)Cc2cc3c(CNCCC4CCNCC4)c(O)ccc3nc2-1 [Compound 30, 9-(piperidine-4-ethylamine)methyl-10-hydroxycamptothecin]
IC50 (OE33 cells): 100 to 500 nM

CC[C@@]1(O)C(=O)OCc2c1cc1n(c2=O)Cc2cc3c(CN(C)C4CCC(O)CC4)c(O)ccc3nc2-1 (stereo partly drawn) [Compound 16, 9-(N-methyl-trans-4-hydroxycyclohexylamine)methyl-10-hydroxycamptothecin]
IC50 (OE33 cells; numeric value or bound, read-out: IC50): 0.221 nM

CC[C@@]1(O)C(=O)OCc2c1cc1n(c2=O)Cc2cc3c(CN(C)[C@@H](C)C(=O)O)c(O)ccc3nc2-1 [Compound 36, 9-(N-methyl-L-alanine)methyl-10-hydroxycamptothecin]
IC50 (OE33 cells; read-out: IC50): 100 to 500 nM

CC[C@@]1(O)C(=O)OCc2c1cc1n(c2=O)Cc2cc3c(CN(C)CCN)c(O)ccc3nc2-1 [Compound 13, 9-(N-methyl-N-aminoethylamino)methyl-10-hydroxycamptothecin]
IC50 (OE33 cells; read-out: IC50): 100 to 500 nM
